Source: PMC5218480 (PLoS ONE, 2017)

Tested on: MV-4-11 cells
Assay: Gene expression microarray analysis (Affymetrix PrimeView) and GSEA
Format: cell-based, human
Set-up: RFU PODN (11730768_x_at) / Fold change /veh PODN (11730768_x_at) / RFU LINC00158 (11744669_a_at) / Fold change /veh LINC00158 (11744669_a_at) / RFU DUSP10 (11751237_a_at) / Fold change /veh DUSP10 (11751237_a_at) / RFU ID3 (11757404_x_at) / Fold change /veh ID3 (11757404_x_at) / RFU PLEKHG5 (11737974_s_at) / Fold change /veh PLEKHG5 (11737974_s_at) / RFU LRRC4B (11730491_at) / Fold change /veh LRRC4B (11730491_at) / RFU GIMAP4 (11747438_a_at) / Fold change /veh GIMAP4 (11747438_a_at) / RFU KRT8 (11758183_x_at) / Fold change /veh KRT8 (11758183_x_at) / RFU CNN1 (11734310_a_at) / Fold change /veh CNN1 (11734310_a_at) / RFU VPS37D (11726825_at) / Fold change /veh VPS37D (11726825_at) / RFU C10orf10 (11716522_x_at) / Fold change /veh C10orf10 (11716522_x_at) / RFU KIR2DL2 /// KIR2DL4 /// KIR2DL5A /// KIR2DL5B /// KIR2DS1 /// KIR2DS2 /// KIR2DS3 /// KIR2DS4 /// KIR3DL3 /// KIR3DL3 /// KIR3DS1 (11738374_at) / Fold change /veh KIR2DL2 /// KIR2DL4 /// KIR2DL5A /// KIR2DL5B /// KIR2DS1 /// KIR2DS2 /// KIR2DS3 /// KIR2DS4 /// KIR3DL3 /// KIR3DL3 /// KIR3DS1 (11738374_at) / RFU C1QL1 (11718748_at) / Fold change /veh C1QL1 (11718748_at) / RFU TMPRSS4 (11747572_a_at) / Fold change /veh TMPRSS4 (11747572_a_at) / RFU HAMP (11756126_x_at) / Fold change /veh HAMP (11756126_x_at) / RFU RNFT2 (11725882_a_at) / Fold change /veh RNFT2 (11725882_a_at) / RFU NR4A2 (11747474_a_at) / Fold change /veh NR4A2 (11747474_a_at) / RFU ABCC12 (11746883_a_at) / Fold change /veh ABCC12 (11746883_a_at) / RFU TMEM136 (11760407_x_at) / Fold change /veh TMEM136 (11760407_x_at) / RFU CLDN22 /// WWC2 (11732394_at) / Fold change /veh CLDN22 /// WWC2 (11732394_at) / RFU HLA-DPB1 (11760878_x_at) / Fold change /veh HLA-DPB1 (11760878_x_at) / RFU SPINT1 (11716480_a_at) / Fold change /veh SPINT1 (11716480_a_at) / RFU GAP43 (11754022_s_at) / Fold change /veh GAP43 (11754022_s_at) / RFU A4GNT (11735810_at) / Fold change /veh A4GNT (11735810_at) / RFU PRB3 (11715151_x_at) / Fold change /veh PRB3 (11715151_x_at) / RFU TUBB4B (11761932_at) / Fold change /veh TUBB4B (11761932_at) / RFU CAPN14 (11732068_a_at) / Fold change /veh CAPN14 (11732068_a_at) / RFU TMCC2 (11721928_a_at) / Fold change /veh TMCC2 (11721928_a_at) / RFU IRGQ (11745062_a_at) / Fold change /veh IRGQ (11745062_a_at) / RFU FAM174B (11720279_a_at) / Fold change /veh FAM174B (11720279_a_at) / RFU TMPRSS4 (11748680_a_at) / Fold change /veh TMPRSS4 (11748680_a_at) / RFU FAM212B (11763350_a_at) / Fold change /veh FAM212B (11763350_a_at) / RFU PLEKHG5 (11743358_a_at) / Fold change /veh PLEKHG5 (11743358_a_at) / RFU ZSCAN30 (11745921_a_at) / Fold change /veh ZSCAN30 (11745921_a_at) / RFU CMKLR1 (11741424_a_at) / Fold change /veh CMKLR1 (11741424_a_at) / RFU LOC101060620 /// MAPK8IP1 (11723275_at) / Fold change /veh LOC101060620 /// MAPK8IP1 (11723275_at) / RFU SPTSSB (11747773_x_at) / Fold change /veh SPTSSB (11747773_x_at) / RFU PRSS12 (11739890_at) / Fold change /veh PRSS12 (11739890_at) / RFU BIN1 (11741810_x_at) / Fold change /veh BIN1 (11741810_x_at) / RFU WNT11 (11732464_a_at) / Fold change /veh WNT11 (11732464_a_at) / RFU C10orf10 (11716521_a_at) / Fold change /veh C10orf10 (11716521_a_at) / RFU C5orf56 (11738089_at) / Fold change /veh C5orf56 (11738089_at) / RFU CYB561 (11721691_x_at) / Fold change /veh CYB561 (11721691_x_at) / RFU ANKRD19P (11752326_a_at) / Fold change /veh ANKRD19P (11752326_a_at) / RFU OR2T12 /// OR2T33 /// OR2T8 (11738714_s_at) / Fold change /veh OR2T12 /// OR2T33 /// OR2T8 (11738714_s_at) / RFU VCAN (11748164_a_at) / Fold change /veh VCAN (11748164_a_at) / RFU JSRP1 (11732532_at) / Fold change /veh JSRP1 (11732532_at) / RFU KRTAP10-11 (11738290_x_at) / Fold change /veh KRTAP10-11 (11738290_x_at) / RFU MYO3A (11730013_a_at) / Fold change /veh MYO3A (11730013_a_at) / RFU EBF3 (11725865_a_at) / Fold change /veh EBF3 (11725865_a_at) / RFU CAMK2N1 (11719241_x_at) / Fold change /veh CAMK2N1 (11719241_x_at) / RFU C5orf56 (11738088_a_at) / Fold change /veh C5orf56 (11738088_a_at) / RFU OLFML3 (11715873_a_at) / Fold change /veh OLFML3 (11715873_a_at) / RFU LOC100653217 /// NTM (11731650_a_at) / Fold change /veh LOC100653217 /// NTM (11731650_a_at) / RFU MAPK11 (11762145_a_at) / Fold change /veh MAPK11 (11762145_a_at) / RFU FIZ1 (11724087_x_at) / Fold change /veh FIZ1 (11724087_x_at) / RFU OASL (11726364_x_at) / Fold change /veh OASL (11726364_x_at) / RFU SOX15 (11748057_x_at) / Fold change /veh SOX15 (11748057_x_at) / RFU CD79A (11719716_a_at) / Fold change /veh CD79A (11719716_a_at) / RFU HIST1H1D (11736915_at) / Fold change /veh HIST1H1D (11736915_at) / RFU CASKIN2 (11723855_a_at) / Fold change /veh CASKIN2 (11723855_a_at) / RFU LOC730098 (11760151_x_at) / Fold change /veh LOC730098 (11760151_x_at) / RFU OR4N2 (11742367_at) / Fold change /veh OR4N2 (11742367_at) / RFU PRRT2 (11749266_a_at) / Fold change /veh PRRT2 (11749266_a_at) / RFU SNX32 (11753110_a_at) / Fold change /veh SNX32 (11753110_a_at) / RFU CDHR5 (11726645_a_at) / Fold change /veh CDHR5 (11726645_a_at) / RFU RCAN1 (11760418_a_at) / Fold change /veh RCAN1 (11760418_a_at) / RFU FAM167A (11723789_a_at) / Fold change /veh FAM167A (11723789_a_at) / RFU FAM26E (11764081_at) / Fold change /veh FAM26E (11764081_at) / RFU ISYNA1 (11749810_s_at) / Fold change /veh ISYNA1 (11749810_s_at) / RFU ACY1 (11761880_at) / Fold change /veh ACY1 (11761880_at) / RFU 11764098_at / Fold change /veh 11764098_at / RFU SAMD14 (11745864_x_at) / Fold change /veh SAMD14 (11745864_x_at) / RFU NPB (11741838_a_at) / Fold change /veh NPB (11741838_a_at) / RFU TMPRSS6 (11731388_a_at) / Fold change /veh TMPRSS6 (11731388_a_at) / RFU KRTAP10-2 (11738614_at) / Fold change /veh KRTAP10-2 (11738614_at) / RFU ARHGAP8 /// PRR5-ARHGAP8 (11727945_x_at) / Fold change /veh ARHGAP8 /// PRR5-ARHGAP8 (11727945_x_at) / RFU KRTAP5-7 /// NADSYN1 (11734609_at) / Fold change /veh KRTAP5-7 /// NADSYN1 (11734609_at) / RFU RASL12 (11751679_a_at) / Fold change /veh RASL12 (11751679_a_at) / RFU CDKN2B (11736163_a_at) / Fold change /veh CDKN2B (11736163_a_at) / RFU PRF1 (11729649_at) / Fold change /veh PRF1 (11729649_at) / RFU, ZNF638 /// ZNF638-IT1 / Fold change vs veh, ZNF638 /// ZNF638-IT1 / RFU, PANK3 / Fold change vs veh, PANK3 / RFU, SH3YL1 / Fold change vs veh, SH3YL1 / RFU, ZEB2 / Fold change vs veh, ZEB2 / RFU, NRIP1 / Fold change vs veh, NRIP1 / RFU, PTTG1IP / Fold change vs veh, PTTG1IP / RFU, CAPN2 / Fold change vs veh, CAPN2 / RFU, MED14 / Fold change vs veh, MED14 / RFU, SNORA58 / Fold change vs veh, SNORA58 / RFU, C1orf63 / Fold change vs veh, C1orf63 / RFU, LRRFIP1 / Fold change vs veh, LRRFIP1 / RFU, NDUFAF7 / Fold change vs veh, NDUFAF7 / RFU, SLC12A2 / Fold change vs veh, SLC12A2 / RFU, IBTK / Fold change vs veh, IBTK / RFU, ESF1 / Fold change vs veh, ESF1 / Fold change vs veh, TMEM50B / RFU, TAOK1 / Fold change vs veh, TAOK1 / RFU, ACBD3 / Fold change vs veh, ACBD3 / RFU, TMA16 / Fold change vs veh, TMA16 / RFU, RWDD3 / Fold change vs veh, RWDD3 / RFU, BCAT1 / Fold change vs veh, BCAT1 / RFU, EDEM3 / Fold change vs veh, EDEM3 / RFU, TMEM33 / Fold change vs veh, TMEM33 / RFU, WDR75 / Fold change vs veh, WDR75 / RFU, AHCTF1 / Fold change vs veh, AHCTF1 / RFU, TFRC / Fold change vs veh, TFRC / RFU, ZDHHC17 / Fold change vs veh, ZDHHC17 / RFU, NOM1 / Fold change vs veh, NOM1 / RFU, ARL8B / Fold change vs veh, ARL8B / RFU, ZBTB11 / Fold change vs veh, ZBTB11 / RFU, TAMM41 / Fold change vs veh, TAMM41 / RFU, KIAA1704 /// LOC100996395 / Fold change vs veh, KIAA1704 /// LOC100996395 / RFU, ING1 / Fold change vs veh, ING1 / RFU, TRMT61B / Fold change vs veh, TRMT61B / RFU, FUBP3 / Fold change vs veh, FUBP3 / RFU, TP53 / Fold change vs veh, TP53 / RFU, TNKS2 / Fold change vs veh, TNKS2 / RFU, ZFP14 / Fold change vs veh, ZFP14 / RFU, ACTR2 / Fold change vs veh, ACTR2 / RFU, PPP3R1 / Fold change vs veh, PPP3R1 / RFU, PIK3R1 / Fold change vs veh, PIK3R1 / RFU, HNRNPA1 / Fold change vs veh, HNRNPA1 / RFU, RNF170 / Fold change vs veh, RNF170 / RFU, ZNF28 / Fold change vs veh, ZNF28 / RFU, RNGTT / Fold change vs veh, RNGTT / RFU, OGT / Fold change vs veh, OGT / RFU, BRD1 / Fold change vs veh, BRD1 / RFU, MARS / Fold change vs veh, MARS / RFU, ZNF655 / Fold change vs veh, ZNF655 / RFU, FAHD1 / Fold change vs veh, FAHD1 / RFU, BDP1 / Fold change vs veh, BDP1 / RFU, LRRCC1 / Fold change vs veh, LRRCC1 / RFU, ARID1A / Fold change vs veh, ARID1A / RFU, ZNF146 / Fold change vs veh, ZNF146 / RFU, ZNF330 / Fold change vs veh, ZNF330 / RFU, GPN3 / Fold change vs veh, GPN3 / RFU, C9orf123 / Fold change vs veh, C9orf123 / RFU, N4BP2L2 / Fold change vs veh, N4BP2L2 / RFU, ARFIP1 / Fold change vs veh, ARFIP1 / RFU, FAM179B / Fold change vs veh, FAM179B / RFU, BCL10 / Fold change vs veh, BCL10 / RFU, UHRF1BP1L / Fold change vs veh, UHRF1BP1L / RFU, BET1 / Fold change vs veh, BET1 / RFU, CNOT2 / Fold change vs veh, CNOT2 / RFU, ZNF268 / Fold change vs veh, ZNF268 / Fold change vs veh, ZNF507 / RFU, DGCR2 / Fold change vs veh, DGCR2 / RFU, WDSUB1 / Fold change vs veh, WDSUB1 / Fold change vs veh, HSP90B1 /// MIR3652 / RFU, ADSS / Fold change vs veh, ADSS / RFU, GK / Fold change vs veh, GK / RFU, ZNF148 / Fold change vs veh, ZNF148 / RFU, TAF9 / Fold change vs veh, TAF9 / RFU, SLC1A5 / Fold change vs veh, SLC1A5 / RFU, SLMO2 / Fold change vs veh, SLMO2 / RFU, ABCC4 / Fold change vs veh, ABCC4 / RFU, LOC101060439 /// RAP1B / Fold change vs veh, LOC101060439 /// RAP1B / RFU, RFX7 / Fold change vs veh, RFX7 / RFU, GTPBP10 / Fold change vs veh, GTPBP10 / RFU, CNEP1R1 / Fold change vs veh, CNEP1R1 / RFU, BIVM-ERCC5 /// ERCC5 / Fold change vs veh, BIVM-ERCC5 /// ERCC5 / RFU, ILF3 / Fold change vs veh, ILF3 / RFU 11762660_at / Fold change /veh 11762660_at / RFU VCAN (11757783_s_at) / Fold change /veh VCAN (11757783_s_at) / RFU DDX43 (11728927_at) / Fold change /veh DDX43 (11728927_at) / RFU KRT8 (11758188_x_at) / Fold change /veh KRT8 (11758188_x_at) / RFU NKD1 (11759106_at) / Fold change /veh NKD1 (11759106_at) / RFU SRD5A1 (11742802_a_at) / Fold change /veh SRD5A1 (11742802_a_at) / RFU TPSAB1 /// TPSB2 (11721975_s_at) / Fold change /veh TPSAB1 /// TPSB2 (11721975_s_at) / RFU GSTM3 (11746129_a_at) / Fold change /veh GSTM3 (11746129_a_at) / RFU IL23R (11737362_x_at) / Fold change /veh IL23R (11737362_x_at) / RFU TMEM51 (11727254_a_at) / Fold change /veh TMEM51 (11727254_a_at) / RFU PIWIL2 (11732686_x_at) / Fold change /veh PIWIL2 (11732686_x_at) / RFU ORM1 (11744905_x_at) / Fold change /veh ORM1 (11744905_x_at) / RFU CCDC152 (11743942_at) / Fold change /veh CCDC152 (11743942_at) / RFU ECM1 (11717891_a_at) / Fold change /veh ECM1 (11717891_a_at) / RFU IL23R (11748794_a_at) / Fold change /veh IL23R (11748794_a_at) / RFU TNFAIP8L3 (11732012_x_at) / Fold change /veh TNFAIP8L3 (11732012_x_at) / RFU MBOAT4 (11741988_at) / Fold change /veh MBOAT4 (11741988_at) / RFU 11764193_at / Fold change /veh 11764193_at / RFU TMEM53 (11763286_at) / Fold change /veh TMEM53 (11763286_at) / RFU MAGEB2 (11727129_at) / Fold change /veh MAGEB2 (11727129_at) / RFU TMEM200A (11744735_a_at) / Fold change /veh TMEM200A (11744735_a_at) / RFU CCDC152 (11751479_a_at) / Fold change /veh CCDC152 (11751479_a_at) / RFU FAM211A (11726209_a_at) / Fold change /veh FAM211A (11726209_a_at) / RFU RGS16 (11746705_a_at) / Fold change /veh RGS16 (11746705_a_at) / RFU VCAN (11755009_s_at) / Fold change /veh VCAN (11755009_s_at) / RFU RHOB (11743442_s_at) / Fold change /veh RHOB (11743442_s_at) / RFU RGS16 (11720943_a_at) / Fold change /veh RGS16 (11720943_a_at) / RFU RGS16 (11720944_at) / Fold change /veh RGS16 (11720944_at) / RFU, VPS4B / Fold change vs veh, VPS4B / RFU, CREB1 / Fold change vs veh, CREB1 / RFU, DNAJC13 / Fold change vs veh, DNAJC13 / RFU, GNAQ / Fold change vs veh, GNAQ / RFU, CDK5R1 / Fold change vs veh, CDK5R1 / RFU, ZRANB3 / Fold change vs veh, ZRANB3 / RFU, CUL4A / Fold change vs veh, CUL4A / RFU, CCNY / Fold change vs veh, CCNY / RFU, UFL1 / Fold change vs veh, UFL1 / RFU, COG3 / Fold change vs veh, COG3 / RFU, DIAPH2 / Fold change vs veh, DIAPH2 / RFU, SKA2 / Fold change vs veh, SKA2 / RFU, AFF3 / Fold change vs veh, AFF3 / RFU, LMF1 / Fold change vs veh, LMF1 / RFU, IPO11 / Fold change vs veh, IPO11 / RFU, DFFB / Fold change vs veh, DFFB / RFU, FOXP1 / Fold change vs veh, FOXP1 / RFU, CARD8 / Fold change vs veh, CARD8 / RFU, STRN3 / Fold change vs veh, STRN3 / RFU, ADK / Fold change vs veh, ADK / RFU, RASSF2 / Fold change vs veh, RASSF2 / RFU, WIPF1 / Fold change vs veh, WIPF1 / RFU, LARP1B / Fold change vs veh, LARP1B / RFU, RASA1 / Fold change vs veh, RASA1 / RFU, RB1 / Fold change vs veh, RB1 / RFU, PPFIA1 / Fold change vs veh, PPFIA1 / RFU, MAT2A / Fold change vs veh, MAT2A / RFU, CCT5 / Fold change vs veh, CCT5 / RFU, WDR92 / Fold change vs veh, WDR92 / RFU, CUX1 / Fold change vs veh, CUX1 / RFU, TTC7A / Fold change vs veh, TTC7A / RFU, TMEM135 / Fold change vs veh, TMEM135 / RFU, DEPTOR / Fold change vs veh, DEPTOR / RFU, CPM / Fold change vs veh, CPM / RFU, DNAJB6 / Fold change vs veh, DNAJB6 / RFU, CACNA2D3 / Fold change vs veh, CACNA2D3 / RFU, DTX4 / Fold change vs veh, DTX4 / RFU, TFCP2 / Fold change vs veh, TFCP2 / RFU, GMCL1 /// GMCL1P1 / Fold change vs veh, GMCL1 /// GMCL1P1 / RFU, AEBP2 / Fold change vs veh, AEBP2 / RFU, SNHG1 /// SNORD22 /// SNORD25 /// SNORD26 /// SNORD27 /// SNORD28 /// SNORD29 /// SNORD31 / Fold change vs veh, SNHG1 /// SNORD22 /// SNORD25 /// SNORD26 /// SNORD27 /// SNORD28 /// SNORD29 /// SNORD31 / Fold change (Aza/veh), C12orf56 (ProbeSet 11735607_a_at) / Fold change (ACY-1035/veh), C12orf56 (ProbeSet 11735607_a_at) / Fold change (Aza/veh), FGFR1OP (ProbeSet 11751329_s_at) / Fold change (ACY-1035/veh), FGFR1OP (ProbeSet 11751329_s_at) / Fold change (Aza/veh), VPS36 (ProbeSet 11739960_a_at) / Fold change (ACY-1035/veh), VPS36 (ProbeSet 11739960_a_at) / RFU SYPL1 (11715823_x_at) / Fold change /veh SYPL1 (11715823_x_at) / RFU IGFBP7 (11715501_s_at) / Fold change /veh IGFBP7 (11715501_s_at) / RFU REEP3 (11722064_at) / Fold change /veh REEP3 (11722064_at) / RFU IGLL1 (11728026_x_at) / Fold change /veh IGLL1 (11728026_x_at): dose or concentration left out as unconfirmed
Details: ProbeSet 11743580_s_at; LIST B

In the case of `Nc1ncn([C@@H]2O[C@H](CO)[C@@H](O)[C@H]2O)c(=O)n1` [azacitidine], the “Fold change vs veh, ACTR2” value is reported as 0.91.
